From ChEMBL document CHEMBL1156934, “Synthesis and SAR of thiazolidinedione derivatives as 15-PGDH inhibitors” (Bioorg Med Chem, 2010) come the findings set out here.

For orientation: IC50 means the concentration that inhibits the measured activity by half. Read a low IC50 as inhibition by little substance.

The target of this experiment is T1, 15-hydroxyprostaglandin dehydrogenase [NAD(+)] (Homo sapiens, UniProt P15428).
T1 sequence (P15428 whole entry): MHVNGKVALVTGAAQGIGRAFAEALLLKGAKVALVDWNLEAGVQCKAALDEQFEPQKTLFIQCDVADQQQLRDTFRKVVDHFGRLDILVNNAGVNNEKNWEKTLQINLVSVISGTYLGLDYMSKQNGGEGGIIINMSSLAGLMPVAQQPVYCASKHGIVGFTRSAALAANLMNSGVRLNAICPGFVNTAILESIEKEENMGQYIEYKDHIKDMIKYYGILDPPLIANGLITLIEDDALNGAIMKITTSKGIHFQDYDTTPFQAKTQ
In words: Inhibition of human 15PGDH expressed in Escherichia coli BL-21 by fluorescence spectrophotometry.

On to `O=C1N=C(O)S/C1=C\c1ccc(OCCN2CCCCC2)cc1`, for which the IC50 was found to be 1440 nM.
For the compound `CC1CCC(COc2ccc(/C=C3\SC(O)=NC3=O)cc2)CC1` (stereo unspecified), the IC50 was 52 nM. This IC50 lies about 28-fold lower than the previous one.
With `CC(C)OCCOc1ccc(/C=C2\SC(O)=NC2=O)cc1`, the IC50 came out at 1250 nM.
On to `COC(=O)C1CCC(COc2ccc(/C=C3\SC(=O)NC3=O)cc2)CC1` (stereo unspecified), for which half-maximal inhibition (IC50) required 620 nM.
In turn, `O=C1N=C(O)S/C1=C\c1ccc(OCCCN2CCS(=O)(=O)CC2)cc1` registered an IC50 of 1960 nM.
`O=C1NC(=O)/C(=C/c2ccc(OCCC3CCCCC3)cc2)N1` showed an IC50 of 865 nM.
Turning to `O=C1NC(=O)/C(=C/c2ccc(OCCC3CCCCO3)cc2)S1` (stereo unspecified), the IC50 is 750 nM.
In turn, `O=C1NC(=O)/C(=C/c2ccc(OCC3CCCC3)cc2)S1` came in with a half-inhibitory concentration (IC50) of 45 nM.
`O=C1NC(=O)/C(=C\c2ccc(OCc3ccc(-c4ccccc4)cc3)cc2)S1` gave an IC50 of 814 nM.
Compound `O=C1NC(=O)/C(=C/c2ccc(OCCC3CCCC3)cc2)S1` came in with an IC50 of 116 nM.
`COc1ccc(COc2ccc(/C=C3\SC(=O)NC3=O)cc2)cc1`: the IC50 is 529 nM.
`Cc1ncsc1CCOc1ccc(/C=C2\SC(O)=NC2=O)cc1` yielded an IC50 of 636 nM. The IC50 values of the last two compounds are within 1.5-fold of each other.
`O=C1N=C(O)S/C1=C\c1ccc(OCCN2CCS(=O)(=O)CC2)cc1` gave an IC50 of 274 nM.
`O=C1NC(=O)/C(=C\c2ccc(OCC3COc4ccccc4O3)cc2)S1` (stereo unspecified) displayed an IC50 of 172 nM.
`O=C1NC(=O)/C(=C/c2ccc(OCc3cccs3)cc2)S1` yielded an IC50 of 287 nM.
On to `O=C1NC(=O)/C(=C/c2ccc(OCc3ccco3)cc2)S1`, for which the half-inhibitory concentration (IC50) stood at 893 nM.
The result for `O=C1C/C(=C\c2ccc(OCCC3CCCCC3)cc2)C(=O)N1` reads 3790 nM; that for `O=C1N=C(O)S/C1=C\c1ccc(OCCc2ccccn2)cc1`, 660 nM; that for `Cc1ccc(COc2ccc(/C=C3\SC(O)=NC3=O)cc2)cc1`, 232 nM.
To `O=C1S/C(=C\c2ccc(OCCC3CCCCC3)cc2)C(=O)N1CCO` belongs 526 nM; to `O=C1N=C(O)S/C1=C\c1ccc(OCCc2cccs2)cc1`, 31 nM.
For `O=C1NC(=O)/C(=C/c2ccc(OCCc3ccsc3)cc2)S1`, the IC50 stood at 60 nM.
As to `O=C1N=C(O)S/C1=C\c1ccc(OCc2ccsc2)cc1`, it took 429 nM to reach half-maximal inhibition (IC50). Compared with the last compound, the IC50 is about 7.2-fold higher.
In turn, `O=C1N=C(O)S/C1=C\c1ccc(OCc2ccc3c(c2)OCO3)cc1` displayed an IC50 of 252 nM.
On to `O=C1N=C(O)S/C1=C\c1ccc(OCCNC2CCCCC2)cc1`, for which the IC50 was 3720 nM.
As for `O=C1NC(=O)/C(=C/c2ccc(OCCN3CCOCC3)cc2)S1`, the IC50 was determined as 713 nM.
